Where a SMILES comes first, the peptide text is derived from it. [ ]: non-standard residue; d: D form. pGlu = O=C1CC[C@@H](C(=O)O)N1
Details: acidic group

In order of rising pKa:
1. CC(=O)C1C(=O)OC(=O)C=C1C (stereo not drawn)  1.34
2. C[C@H](O)C(=O)C1=Nc2c(nc(N)[nH+]c2O)NC1  1.45
3. Cc1ccccc1S(=O)O  1.47
4. [NH3+][C@@H](Cc1[nH+]c[nH]c1I)C(=O)O  1.65
5. CC(C)(S)C(C(=O)O)n1cc[nH+]c1Cc1ccccc1 (stereo not drawn)  1.8
6. O=C(O)c1cccc2ccc[nH+]c12  1.9
7. C[n+]1ccc(O)nc1  1.91
8. O=C(O)Cn1nnnc1-c1ccccc1  2.11
9. [NH3+][C@@H](Cc1ccccc1)C(=O)O  2.21
10. CC(C#N)(Cc1ccccc1)C(=O)O (stereo not drawn)  2.29
11. C[n+]1cccc(C(=O)O)c1  2.29
12. CC[C@H](C)[C@H]([NH3+])C(=O)O  2.31
13. CC(C)(C)C#CC(=O)O  2.66
14. CC(C)CCC([NH3+])C(=O)O (stereo not drawn)  3.06
15. C[NH+]1C[C@H](C(=O)O)C=C2c3cccc4[nH]cc(c34)C[C@@H]21  3.25
16. O=C(O)c1cc(-c2ccccc2)oc(=O)c1  3.3
17. C[C@H](NC(=O)[C@H](CCC(N)=O)NC(=O)[C@@H]1CCC(=O)N1)C(=O)O ([pGlu]-Gln-Ala-OH)  3.67
18. O=C(O)C1(O)CCC1  3.88
19. O=C(O)CP  4.07
20. O=C(O)C12CC3CC(CC(F)(C3)C1)C2  4.22
21. CC(C)=CCC1=C(O)[C@](O)(CC=C(C)C)C(=O)C(C(=O)CC(C)C)=C1O  4.22
22. NC1=NS(=O)(=O)Nc2nc[nH]c21  4.28
23. O=C(O)Cc1c[nH]c2ccccc12  4.39
24. O=Cc1cc(Br)cc([N+](=O)[O-])c1O  4.46
25. O=C([O-])[C@H](P)CC[C@H](P)C(=O)O  4.49
26. O=C(O)c1ccc(Oc2ccccc2)cc1  4.52
27. COc1ccc([C@H]2C[C@@H]2C(=O)O)cc1  4.62
28. N#CC(CCCCC(=O)O)c1ccccc1 (stereo not drawn)  4.75
29. CC(C)(C)CCCC(=O)O  4.88
30. CC1=CC(=O)CC(=O)O1  5
31. Oc1ccc[nH+]c1  5.01
32. O=P([O-])(O)C([NH2+]Cc1cccnc1)c1ccccc1O (stereo not drawn)  5.15
33. CC1(C)CC(=O)CC(=O)C1  5.21
34. O=c1[nH]c(=O)c2ncn([C@H]3O[C@@H](CO)[C@H](O)[C@@H]3O)c2[nH]1  5.72
35. CNc1nnn[nH]1  6.06
36. Cc1cc(C=O)c(O)c(C=O)c1  6.2
37. Nc1ccc(S(=O)(=O)Nc2ncccn2)cc1  6.42
38. O=[N+]([O-])c1cccc(O)c1O  6.64
39. Oc1cncnc1  6.78
40. COc1cc(OC)nc(NS(=O)(=O)c2ccc(N)cc2)n1  7.12
41. O=[N+]([O-])c1ccccc1O  7.15
42. CC[NH+](CC)Cc1cccc(F)c1O  7.26
43. NC(=O)C(N)Cc1ccccc1 (stereo not drawn)  7.33
44. O=c1oc2cc(O)ccc2cc1-c1ccccc1  7.8
45. NS(=O)(=O)c1nc2ccccc2s1  7.8
46. CC(/N=N/O)c1ccccc1 (stereo not drawn)  8.32
47. Oc1ccccc1Br  8.4
48. c1coc(CSc2ncnc3nc[nH]c23)c1  8.42
49. Cc1ccnc2c(O)cccc12  8.44
50. Cc1ccc(S(=O)(=O)Nc2ccccc2)cc1  8.46
51. Sc1cc2ccccc2cn1  8.58
52. CC(C)CCC[NH+](C)CCCNC(=O)/C=N/O  8.72
53. CCC[NH+](CCC)CCCNC(=O)/C=N/O  8.73
54. Oc1ccc2nc3ccccc3cc2c1  8.81
55. c1ncc2[nH]cnc2n1  8.92
56. Oc1ccc2cccc(I)c2c1  8.98
57. COC(=O)CC(=O)c1cccnc1  8.98
58. Oc1ccccc1/C=N/c1ncc2nc[nH]c2n1  9.19
59. CCOC(=O)c1ccc(O)cc1  9.34
60. OC[C@H]1O[C@@H]2NC(=S)O[C@@H]2[C@H]1O  9.48
61. CC(C)c1cccc2ccc(O)cc12  9.52
62. O=C([O-])/C=C/c1ccccc1O  9.63
63. O=C(Oc1ccc([N+](=O)[O-])cc1)C1c2ccccc2-c2ccccc21  9.9
64. Oc1ccccc1-c1ccccc1  9.99
65. Cc1c(O)cncc1C1CCCCC1  10
66. Cc1cc(N)c2ccccc2c1O  10.1
67. CC(=O)C(Cc1ccc(Cl)cc1)C(C)=O  10.2
68. CC(C)(C)c1ccc2c(c1)C(=O)NC2=O  10.2
69. O=[N+]([O-])c1cccc(/C=N/O)c1  10.2
70. C=C[C@@H]1CNC(=S)O1  10.2
71. CCCS  10.6
72. COc1cccc(/C=N/O)c1  10.6
73. Nc1ccc(-c2ccc(/N=C/c3ccccc3O)cc2)cc1  11.1
74. O/N=C\c1ccccc1  11.3
75. CN(C)c1cccc2c(S(=O)(=O)NCC(=O)[O-])cccc12  11.7
76. NC(=S)c1ccc([N+](=O)[O-])cc1  11.8
77. O/C(=C/c1ccccn1)c1ccccc1  12.2
78. O=C(NCO)c1ccccc1  13.1
79. COc1ccc2[nH]c3c(C)nccc3c2c1  14.6
80. Cn1c(CO)nc2ccccc21  15.8

Same assay, conditions: basic group

In order of falling pKa:
1. O=C([O-])C(NCCNC(C(=O)[O-])c1ccccc1[O-])c1ccccc1[O-] (stereo not drawn)  11.7
2. C=CC(C)(CC)N(C)C(C)C (stereo not drawn)  11.3
3. CC1CCCC(C)(C)N1 (stereo not drawn)  11.3
4. O=C(CCl)CCl  11
5. C/C(CN(C)C)=N\[O-]  10.9
6. CNCC[S-]  10.8
7. CN1CCCC1  10.6
8. CC(C)CNCC(C)C  10.6
9. O=C([O-])C1CCCN1 (stereo not drawn)  10.6
10. C[C@H]([C@H](O)c1ccccc1)N(C)C  10
11. CC(=O)OCC1CC2CCN1CC2 (stereo not drawn)  9.88
12. CNCCN(C)CC[NH2+]C  9.84
13. CN1CCCC(C(=O)[O-])C1 (stereo not drawn)  9.7
14. Cc1cc(N)c(C)cn1  9.68
15. COc1ccc(CN)cc1  9.67
16. C[Se]CCN  9.53
17. Nc1cc(N)c2ccccc2n1  9.45
18. NC(Cc1cccnc1)C(=O)[O-] (stereo not drawn)  9.26
19. CN1CCC(n2nc(-c3ccccc3)c(Cc3ccccc3)c2[O-])CC1  9.13
20. Cc1cccc(Cl)c1/C(=N/CCCN(C)C)c1ccccc1  8.8
21. CNC(=O)C1CCCCN1 (stereo not drawn)  8.8
22. O=C(N[C@@H]1C[C@H]2CC[C@@H](C1)N2Cc1ccccc1)c1cccc2c1OCCO2  8.68
23. Oc1ccccc1CN1CCCCC1  8.6
24. NCCBr  8.5
25. CCCCSCCN(CC)CC  8.43
26. C1CCN(CCC[NH+]2CCCC2)C1  8.03
27. CC[NH+](CC)CCNc1ccnc2ccccc12  8
28. NCC(N)C[NH3+]  7.95
29. CN1C[C@@H](C(=O)[O-])C=C2c3cccc4[nH]cc(c34)C[C@@H]21  7.85
30. Nc1ccc(-c2ccc(/N=C/c3ccccc3O)cc2)cc1  7.68
31. CCN(CC)N(CC)CC  7.31
32. COc1ccc2[nH]c3c(C)nccc3c2c1  7.09
33. C[C@H]1O[C@H](O[C@H]2CC[C@H](n3ccc(N)nc3=O)O[C@@H]2C)[C@H](O)[C@@H](O)[C@@H]1N(C)C  7
34. O=C([O-])CC(c1ncc[nH]1)c1ncc[nH]1  6.9
35. CN(C)/C=N/c1ccc([N+](=O)[O-])cc1  6.71
36. CN(c1ccccc1)C1CCCC1  6.71
37. Nc1ccnnc1  6.69
38. Cc1nc2c(C)ccc([N+](=O)[O-])c2c(NCCC[NH+](C)C)c1C  6.67
39. COc1ccc(-c2nc3cnccc3[nH]2)c(OC)c1  6.49
40. CN(C)Cc1ccc(C[NH+](C)C)c(O)c1O  6.39
41. CN(C)c1nc2c(o1)CCCC2  6.16
42. Nc1cncn1[C@H]1O[C@@H](CO)[C@H](O)[C@@H]1O  6.05
43. Cc1cc(N)nc2c1ccc1ccccc12  6.02
44. OCCCCCc1ccccn1  5.93
45. C1CN2C(=N1)N1CCN=C1N1CCN=C21  5.8
46. Nc1cccc(-c2ccccn2)n1  5.8
47. c1ncc(Cc2c[nH+]c[nH]2)[nH]1  5.69
48. Cc1c(O)cncc1C1CCCCC1  5.6
49. Oc1ccc2nc3ccccc3cc2c1  5.52
50. Oc1ccc(C2NCCS2)cc1 (stereo not drawn)  5.5
51. CCCn1cnc2ccccc21  5.46
52. CC1(C)CC2CCN1C(=O)C2 (stereo not drawn)  5.33
53. CNCC#N  5.26
54. Cc1n[nH]c2ccc(N)cc12  5.25
55. COc1ccc(OC)c2c1nc(CO)n2C  5.24
56. O=C([O-])c1ccc2nc3ccccc3cc2c1  5.22
57. O=C([O-])CSc1nc2cc3c(cc2[nH]1)CCCC3  5.2
58. Nc1ccc(Oc2ccc(N)cc2)cc1  5.18
59. Nc1ccc2[nH]ncc2c1  5.15
60. CCCCNc1ccccc1  5.11
61. NC(=O)CCc1ccccn1  5.09
62. C1OC1CN(CC1CO1)CC1CO1 (stereo not drawn)  5.01
63. O=C([O-])c1ccc2ccccc2n1  4.97
64. c1ccc2c(c1)CCCN2  4.96
65. Nc1nc2ccccc2nc1N  4.7
66. CC(=O)Nc1cccnc1  4.44
67. Nc1ccc(-c2ccccc2)cc1  4.38
68. Cn1ccc2ccc3cccnc3c21  4.36
69. Cn1c(CO)nc2ccccc21  4.36
70. CCCCNc1ncnc2c1cnn2C  4.22
71. c1ccc(CNc2ncnc3[nH]cnc23)cc1  4.09
72. c1coc(CNc2ncnc3[nH]ncc23)c1  4.01
73. N#CCc1cccnc1  3.78
74. CC(C[NH3+])/C(N)=N/O (stereo not drawn)  3.65
75. Nc1cc[n+]([O-])cc1  3.61
76. O/C(=C/c1ccccn1)c1ccccc1  3.57
77. Oc1ccccc1/C=N/c1ncc2nc[nH]c2n1  3.38
78. Cc1nc(C)c(C)nc1C  3.36
79. O=P([O-])(O)C([NH2+]Cc1cccnc1)c1ccccc1O (stereo not drawn)  3.14
80. COc1ncnc2ccccc12  3.13
81. Cn1c(=O)n(C)c2c(N)cccc21  3.06
82. Nc1cccc(S(N)(=O)=O)c1  2.87
83. Nc1ccc2cccc([N+](=O)[O-])c2c1  2.86
84. Nc1cccc2c([N+](=O)[O-])cccc12  2.8
85. Nc1cccc([N+](=O)[O-])c1  2.6
86. c1ncc2[nH]cnc2n1  2.45
87. Cc1cc(=O)n(C)n1-c1ccccc1  2.4
88. Cc1[nH+]c2cccc(N)c2n1C  2.35
89. Nc1cc([N+](=O)[O-])cc2ccccc12  2.24
90. Nc1ccc(S(=O)(=O)Nc2ncccn2)cc1  2
91. Oc1cncnc1  1.87
92. Sc1cc2ccccc2cn1  0.39
93. NC1=NS(=O)(=O)Nc2nc[nH]c21  0.28
94. Cc1ccc(N(CC2CO2)CC2CO2)cc1 (stereo not drawn)  -0.48
95. CC1CCN(c2cc[nH+]cc2)CC1  -0.56
96. CCC/C(N)=C/C(=O)c1ccccc1  -1.12
97. CP(=O)(Cc1ccccc1)c1ccccc1 (stereo not drawn)  -1.82
98. c1ccc(-n2cccn2)[nH+]c1  -4.8

From the pKa sets of Baltruschat and Czodrowski (2020)
